Test results published in PubChem BioAssay AID248 (DTP/NCI, 2004).
Several values for one entry are separate records, joined by “and”; a condition that tells them apart may be missing. Identical values can stand only once. Inconclusive results and toxic doses are left out. No stated cut-off is given here; in the data, active means T/C of 150% or more; inactive means T/C below 125%.

System: L1210 leukemia ip in BDF1 mice, survival T/C
Test: NCI In Vivo Anticancer Drug Screen. Data for tumor model L1210 Leukemia (intraperitoneal) in B6D2F1 (BDF1) mice
Settings: endpoint: mean survival time, higher = longer survival
In short: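 Transplanted-tumor mice were given test agent; controls received vehicle only. Survival readings from the two groups were divided (treated over control).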

[1] = dose: 100.0 mg/kg/injection, schedule: Q01DX001 (ip), vehicle: carboxymethylcellulose (CMC)
[2] = dose: 200.0 mg/kg/injection, schedule: Q01DX001 (ip), vehicle: carboxymethylcellulose (CMC)
[3] = dose: 400.0 mg/kg/injection, schedule: Q01DX001 (ip), vehicle: carboxymethylcellulose (CMC)
[4] = dose: 100.0 mg/kg/injection, schedule: Q01DX009 (ip), vehicle: saline with Tween-80
[5] = dose: 100.0 mg/kg/injection, schedule: Q04DX003 (ip), vehicle: saline with Tween-80
[6] = dose: 200.0 mg/kg/injection, schedule: Q01DX009 (ip), vehicle: saline with Tween-80
[7] = dose: 200.0 mg/kg/injection, schedule: Q04DX003 (ip), vehicle: saline with Tween-80
[8] = dose: 400.0 mg/kg/injection, schedule: Q01DX009 (ip), vehicle: saline with Tween-80
[9] = dose: 400.0 mg/kg/injection, schedule: Q04DX003 (ip), vehicle: saline with Tween-80
[10] = dose: 50.0 mg/kg/injection, schedule: Q01DX009 (ip), vehicle: saline
[11] = dose: 100.0 mg/kg/injection, schedule: Q01DX009 (ip), vehicle: saline
[12] = dose: 100.0 mg/kg/injection, schedule: Q01DX001 (ip), vehicle: Klucel (hydroxypropylcellulose) (HPC)
[13] = dose: 100.0 mg/kg/injection, schedule: Q01DX009 (ip), vehicle: Klucel (hydroxypropylcellulose) (HPC)
[14] = dose: 200.0 mg/kg/injection, schedule: Q01DX001 (ip), vehicle: Klucel (hydroxypropylcellulose) (HPC)
[15] = dose: 200.0 mg/kg/injection, schedule: Q01DX009 (ip), vehicle: Klucel (hydroxypropylcellulose) (HPC)
[16] = dose: 400.0 mg/kg/injection, schedule: Q01DX001 (ip), vehicle: Klucel (hydroxypropylcellulose) (HPC)
[17] = dose: 400.0 mg/kg/injection, schedule: Q01DX009 (ip), vehicle: Klucel (hydroxypropylcellulose) (HPC)
[18] = dose: 50.0 mg/kg/injection, schedule: Q01DX001 (ip), vehicle: saline
[19] = dose: 100.0 mg/kg/injection, schedule: Q01DX001 (ip), vehicle: saline
[20] = dose: 200.0 mg/kg/injection, schedule: Q01DX001 (ip), vehicle: saline
[21] = dose: 400.0 mg/kg/injection, schedule: Q01DX001 (ip), vehicle: saline
[22] = dose: 100.0 mg/kg/injection, schedule: Q04DX002 (ip), vehicle: saline with Tween-80
[23] = dose: 100.0 mg/kg/injection, schedule: Q04DX003 (ip), vehicle: saline
[24] = dose: 200.0 mg/kg/injection, schedule: Q04DX003 (ip), vehicle: saline
[25] = dose: 400.0 mg/kg/injection, schedule: Q04DX003 (ip), vehicle: saline
[26] = dose: 200.0 mg/kg/injection, schedule: Q01DX009 (ip), vehicle: saline

Measured: T/C

C#CCCCc1ccccc1
inactive: dose: 50.0 mg/kg/injection, schedule: Q01DX001 (ip), vehicle: carboxymethylcellulose (CMC) 102 % of control | [1] 98 % of control | [2] 96 % of control | [3] 96 % of control

Cc1c2cnccc2c(C)c2c1c1ccccc1n2CCOC(=O)c1ccccc1
inactive: dose: 50.0 mg/kg/injection, schedule: Q01DX009 (ip), vehicle: saline with Tween-80 88 % of control | [4] 98 % of control and 88 % of control | [5] 100 % of control | [6] 93 % of control | [7] 97 % of control | [8] 95 % of control | [9] 91 % of control

c1ccc(Nc2ncc3cnccn23)cc1
inactive: dose: 25.0 mg/kg/injection, schedule: Q01DX009 (ip), vehicle: saline 96 % of control | [10] 90 % of control | [11] 97 % of control

COC(=O)CCCCCCCCCC(=O)OC
inactive: [12] 100 % of control | [13] 97 % of control | [14] 101 % of control | [15] 96 % of control | [16] 95 % of control | [17] 94 % of control

CCCCSP(=O)(Cc1ccccc1)SCCCC
inactive: dose: 12.5 mg/kg/injection, schedule: Q04DX003 (ip), vehicle: Klucel (hydroxypropylcellulose) (HPC) 102 % of control | dose: 25.0 mg/kg/injection, schedule: Q04DX003 (ip), vehicle: Klucel (hydroxypropylcellulose) (HPC) 95 % of control | dose: 50.0 mg/kg/injection, schedule: Q04DX003 (ip), vehicle: Klucel (hydroxypropylcellulose) (HPC) 97 % of control

Cc1nonc1-c1nc(SCC(=O)NN)n[nH]1
inactive: dose: 25.0 mg/kg/injection, schedule: Q04DX002 (ip), vehicle: Klucel (hydroxypropylcellulose) (HPC) 102 % of control | dose: 50.0 mg/kg/injection, schedule: Q04DX002 (ip), vehicle: Klucel (hydroxypropylcellulose) (HPC) 98 % of control

Cc1ccc(S(=O)(=O)Nc2cccc(C(=O)O)c2)cc1
inactive: dose: 100.0 mg/kg/injection, schedule: Q01DX001 (ip), vehicle: other 98 % of control | [5] 98 % of control | dose: 200.0 mg/kg/injection, schedule: Q01DX001 (ip), vehicle: other 104 % of control | [7] 104 % of control | dose: 400.0 mg/kg/injection, schedule: Q01DX001 (ip), vehicle: other 102 % of control | [9] 98 % of control

O=C(/C=C/c1ccccc1[N+](=O)[O-])c1ccccc1
inactive: [13] 97 % of control | [15] 101 % of control | [17] 98 % of control

Cc1cc(N(CCCl)CCCl)ccc1C=Nc1ccccc1C(=O)O
inactive: [18] 94 % of control | dose: 50.0 mg/kg/injection, schedule: Q01DX009 (ip), vehicle: Klucel (hydroxypropylcellulose) (HPC) 106 % of control | [12] 94 % of control | [19] 105 % of control | [13] 113 % of control | [14] 103 % of control | [20] 103 % of control | [15] 120 % of control | [16] 101 % of control | [21] 105 % of control | [17] 98 % of control

CN(C)C(=S)SCC(=O)O
inactive: [22] 100 % of control | dose: 200.0 mg/kg/injection, schedule: Q04DX002 (ip), vehicle: saline with Tween-80 96 % of control | dose: 400.0 mg/kg/injection, schedule: Q04DX002 (ip), vehicle: saline with Tween-80 100 % of control

COC(=O)/C(=C\c1cccnc1)NC(=O)c1ccccc1
inactive: [18] 100 % of control | [19] 100 % of control | [23] 97 % of control | [20] 103 % of control | [24] 95 % of control | [25] 97 % of control

COc1ccccc1CN1CCCN(Cc2ccccc2OC)C1c1cc(I)cc(I)c1O
inactive: [1] 98 % of control | [2] 98 % of control | [3] 93 % of control

N#CCCN(CCc1ccccn1)C(=S)Nc1cccc(C(F)(F)F)c1
inactive: dose: 100.0 mg/kg/injection, schedule: Q01DX009 (ip), vehicle: other 110 % of control | dose: 200.0 mg/kg/injection, schedule: Q01DX009 (ip), vehicle: other 98 % of control | dose: 400.0 mg/kg/injection, schedule: Q01DX009 (ip), vehicle: other 110 % of control

CC(=O)NCC[CH2][Sn]([c]1ccccc1)([c]1ccccc1)[c]1ccccc1
inactive: [10] 100 % of control | [11] 100 % of control | [26] 110 % of control

COc1ccc(Nc2ccc([N+](=O)[O-])cc2[N+](=O)[O-])cc1
inactive: [5] 96 % of control | [7] 94 % of control | [9] 91 % of control

CCN(CC)CCOC(=O)/C=C/c1ccc([N+](=O)[O-])o1
inactive: dose: 50.0 mg/kg/injection, schedule: Q01DX Z (ip), vehicle: saline 103 % of control | dose: 75.0 mg/kg/injection, schedule: Q01DX Z (ip), vehicle: saline 109 % of control | dose: 113.0 mg/kg/injection, schedule: Q01DX Z (ip), vehicle: saline 112 % of control

CC(=O)N1C=Cn2c(cnc2C)C1O (centres undefined)
inactive: dose: 100.0 mg/kg/injection, schedule: Q01DX009 (ip), vehicle: water 104 % of control | dose: 100.0 mg/kg/injection, schedule: Q04DX003 (ip), vehicle: water 109 % of control | dose: 200.0 mg/kg/injection, schedule: Q01DX009 (ip), vehicle: water 94 % of control | dose: 200.0 mg/kg/injection, schedule: Q04DX003 (ip), vehicle: water 102 % of control | dose: 400.0 mg/kg/injection, schedule: Q04DX003 (ip), vehicle: water 98 % of control

N=c1sc2ccccc2n1CC(=O)O
inactive: dose: 25.0 mg/kg/injection, schedule: Q01DX001 (ip), vehicle: saline with Tween-80 92 % of control | dose: 50.0 mg/kg/injection, schedule: Q01DX001 (ip), vehicle: saline with Tween-80 96 % of control | dose: 100.0 mg/kg/injection, schedule: Q01DX001 (ip), vehicle: saline with Tween-80 94 % of control

CCCNC(C)(C)C(SS)c1ccc(Cl)cc1 (centres undefined)
inactive: dose: 100.0 mg/kg/injection, schedule: Q01DX009 (ip), vehicle: saline sonified 97 % of control | dose: 100.0 mg/kg/injection, schedule: Q04DX003 (ip), vehicle: saline sonified 106 % of control | dose: 200.0 mg/kg/injection, schedule: Q01DX009 (ip), vehicle: saline sonified 107 % of control | dose: 200.0 mg/kg/injection, schedule: Q04DX003 (ip), vehicle: saline sonified 95 % of control | dose: 400.0 mg/kg/injection, schedule: Q01DX009 (ip), vehicle: saline sonified 96 % of control | dose: 400.0 mg/kg/injection, schedule: Q04DX003 (ip), vehicle: saline sonified 95 % of control

NCCCC(=O)NC(Cc1cnc[nH]1)C(=O)O (centres undefined)
inactive: [19] 95 % of control | [20] 97 % of control | [21] 92 % of control

CC(=O)COc1ccccc1NC(C)=O
inactive: [4] 101 % of control | [6] 106 % of control | [8] 109 % of control

Cc1cc(=O)[nH]c2c(O)ccc([N+](=O)[O-])c12
inactive: [23] 103 % of control | [24] 103 % of control | [25] 103 % of control

O=c1[nH]cc(CCCO)c(=O)[nH]1
inactive: [11] 88 % of control | [23] 103 % of control | [26] 93 % of control | [24] 100 % of control | dose: 400.0 mg/kg/injection, schedule: Q01DX009 (ip), vehicle: saline 88 % of control | [25] 92 % of control

CC(=O)Nc1cccc(OCCCOc2ccc([N+](=O)[O-])cc2)c1
inactive: [1] 95 % of control | [2] 101 % of control | [3] 90 % of control

NC(N)=N/C(N)=N/Nc1ccc([N+](=O)[O-])cc1[N+](=O)[O-]
inactive: dose: 12.5 mg/kg/injection, schedule: Q04DX002 (ip), vehicle: saline with Tween-80 98 % of control | dose: 25.0 mg/kg/injection, schedule: Q04DX002 (ip), vehicle: saline with Tween-80 93 % of control | [22] 88 % of control
